Results as given in patent US20220354811A1, “METHODS AND COMPOSITIONS FOR MODULATING MACROPHAGES POLARIZATION” (INSERM (INSTITUT NATIONAL DE LA SANTÉ ET DE LA RECHERCHE …, priority 2019, published 2022).

Experiments:
[1] = tested on: human primary monocytes; assay: CSF-1-induced monocyte differentiation into macrophages (flow cytometry, CD71/CD163 and CD16/CD163 double positive cells); format: cell-based
Description: FIG. 1. […] (A) Macrophagic differentiation of monocytes from 3 different healthy donors was examined by 3-color flow cytometric analysis. The results are expressed as percentage of CD71/CD163 or CD16/CD163 double positive cells and represent the mean±SD of 3 independent experiments performed in duplicate. (B) Cell death from 3 different healthy donors was examined by flow cytometry analysis. The results are expressed as percentage of AnnexinV/DAPI double positive cells and represent the mean±SD of 3 independent experiments performed in duplicate. n.s. denotes not statistically significant according to a paired student t test. *P<0.05, **P<0.01, ***P<0.001 according to a paired student t test (versus d2).
FIG. 2. […] Macrophagic differentiation of monocytes from 3 different healthy donors was examined by 3-color flow cytometric analysis. The results are expressed as percentage of CD71/CD163 or CD16/CD163 double positive cells and represent the mean±SD of 3 independent experiments performed in duplicate. n.s. denotes not statistically significant according to a paired student t test. *P<0.05, **P<0.01, ***P<0.001 according to a paired student t test (versus d2).
Human peripheral […] were obtained from healthy donors with informed consent following the Declaration of Helsinki according to recommendations of an independent scientific review board. The project has been validated by The Etablissement Francais du Sang, the French national agency for blood collection (protocol N°ALM/PLER/FO/001). Blood samples were collected using ethylene diamine tetraacetic acid-containing tubes. Mononucleated cells were first isolated using Ficoll Hypaque (Eurobio, CMSMSL0101). Then, we used the autoMACS® Pro Separator (Miltenyi, France) to perform cell enrichment. An initial positive selection, which included antibody targeting CD14, was used for monocyte enrichment (Miltenyi, 130-050-201). Purified monocytes from human were grown in RPMI 1640 medium with glutamax-I (Life Technologies, 61870044) supplemented with 10% (vol/vol) foetal bovine serum (Life Technologies). Macrophage differentiation was induced by adding into the culture medium 100 ng/mL CSF-1 and was visualized using standard optics (20x/0.35 Ph1) equipped with an AxioCam ERc camera (Zeiss, France). Phase images of the cultures were recorded with the Zen 2 software (Zeiss).
To analyze the macrophagic differentiation of monocytes, the cells were washed with ice-cold phosphate buffered saline (PBS, Life Technologies, 14190169), incubated at 4° C. for 10 min in PBS/bovine serum albumin (BSA 0.5%, Dutscher, 871002) with anti-CD16, anti-CD71 and anti-CD163 or isotype controls (Miltenyi and BD Biosciences, catalog numbers were 130-113-396, 130-097-628 and 551374). Finally, the cells were washed and fixed in 2% paraformaldehyde (EMS, 15710). To perform macrophage polarization, purified monocytes were plated at 0.3×10^6 per mL in RPMI 1640 medium with glutamax-I supplemented with 10% (vol/vol) fetal bovine serum plus CSF-1 for 5+2 days to differentiate into M0 macrophages. 20 ng/mL IL-4 (Miltenyi, 130-094-117) was added after 5 days of differentiation for two days to polarize into M2-macrophages. […] Fluorescence was measured with a MACSQuant® Analyzer (Miltenyi, Paris, France). […] Fluorescence was measured with a MACSQuant® Analyzer (Miltenyi, Paris, France). […]

[2] = target: T1, caspase 3 (Homo sapiens, UniProt P42574); assay: Recombinant caspase-3 activity in vitro (Ac-DEVD-AMC substrate); format: biochemical; set-up: using active recombinant proteins of caspase-8 and caspase-3; purchased Enzo life sciences ALX-201-059; details: recombinant caspase-3, Ac-DEVD-AMC
T1 sequence (P42574 29-175 limits assumed): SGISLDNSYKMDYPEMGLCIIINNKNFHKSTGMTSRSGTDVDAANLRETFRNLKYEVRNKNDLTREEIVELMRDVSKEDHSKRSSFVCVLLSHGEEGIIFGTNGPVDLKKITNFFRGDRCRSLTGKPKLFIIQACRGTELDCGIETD
T1 sequence (P42574 176-277 limits assumed): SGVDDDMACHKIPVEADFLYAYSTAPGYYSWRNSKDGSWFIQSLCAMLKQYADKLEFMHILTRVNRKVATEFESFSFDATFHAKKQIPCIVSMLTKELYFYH
Description: FIG. 4. […] (A) Measures of caspase-8 activity (IETD-AMC). IETD-CHO treatment is used as positive control in the in vitro assay. The results are expressed as A.U./min and represent the mean of 3 independent experiments realized in duplicate (B) Measures of caspase-3 activity (DEVD-AMC). DEVD-CHO is used as positive control in the in vitro assay. The results are expressed as A.U./min and represent the mean of 3 independent experiments realized in duplicate. Human CSF-1 was purchased from Miltenyi (130-096-493). […] Mouse caspase-8 was from R&D Systems (AF705). HRP-conjugated rabbit anti-goat was purchased from Dako ([…]) and HRP-conjugated goat anti-rabbit was from Cell Signaling (5127). Active recombinant caspase-8 (ALX-201-062) and -3 (ALX-201-059) were from Enzo life sciences. […] Each assay (in triplicate) was performed with 10 μg of protein prepared from control or stimulated cells. […] Enzyme activities were expressed in arbitrary units (A.U.) per min and per mg of proteins. The same protocol was used with 0.25 units of active recombinant caspase-8 (Enzo, ALX-201-062) or -3 (Enzo, ALX-201-059) in each triplicate.

Structure (SMILES) | concentrations with strong inhibitory effect on macrophagic differentiation ([1]; CSF-1 2 days, Emricasan added at day 0, three different donors) [µM] | concentration range that efficiently inhibited monocyte differentiation ([1]; same-experiment comparison, added only one time, CSF-1 2 days) [µM] | IC50 [2] [µM] | concentration of maximal inhibition of caspase-3 [2] [µM] | concentration range of dose-dependent inhibition of macrophagic differentiation ([1]; added at day 0 only, inhibition weak compared to Emricasan) [µM] | concentrations with significant inhibitory effect on monocyte differentiation ([1]; only when added twice (day 0 and day 1), several donors) [µM] | concentration necessary to achieve inhibition identical to Emricasan ([1]; same-experiment comparison, 2 successive treatments (days 0 and 1)) [µM]
C[C@H](NC(=O)C(=O)Nc1ccccc1C(C)(C)C)C(=O)N[C@@H](CC(=O)O)C(=O)COc1c(F)c(F)cc(F)c1F [Emricasan, (S)-3-((S)-2-(2-((2-(tert-Butyl)phenyl)amino)-2-oxoacetamido)propanamido)-4-oxo-5-(2,3,5,6-tetrafluorophenoxy)pentanoic acid] | 1 to 2 | 1.5 to 2.5 | ~0.5 | 10 | – | – | –
CC(C)[C@H](NC(=O)c1ccc2ccccc2n1)C(=O)N[C@@H](CC(=O)O)C(=O)COc1c(F)cccc1F [Q-VD-OPh] | – | – | ~0.5 | 10 | 75 to 125 | 100 to 125 | 100
